{
  "source": "patent US20160228444A1",
  "about": "“NUCLEOSIDE ANALOGS AND USES THEREOF” (Ramot at Tel-Aviv University Ltd., priority 2015, published 2016)",
  "key": {"TNF-α": {"system": "TNF-α", "assay": "Serum TNF-α in U251 xenograft mice (ELISA)", "type": "in vivo", "details": "co-administration with doxorubicin, FIG. 8C", "procedure": "AN446 was tested in vivo using a xenograft of glioblastoma (U251 cells) in mice."}, "[1]": {"system": "acetylated H3 histone in U251 glioblastoma cells", "assay": "Histone H3 acetylation (Western blot), 24 hours", "type": "cell-based, human", "details": "FIG. 12", "procedure": "The effects of the abovementioned HDAC inhibitors on histone acetylation were also compared. U251 and H9C2 cells were treated with the HDAC inhibitors for 24 hours (according to procedures described hereinabove with respect to FIGS. 9 and 10), and then subjected to Western blot analysis."}, "TLR4": {"system": "TLR4", "details": "24 hours, concentrations based on the IC50, FIG. 15"}},
  "data": [
    {"compound": "CCCC(CCC)C(=O)Nc1nc2c(ncn2COCCOC(=O)C(CCC)CCC)c(=O)[nH]1", "note": "[AN446, N-valproyl-9-(2-valproyloxy)ethoxymethyl-guanine]", "values": [
      {"measurement": "doxorubicin-induced rise in serum levels of TNF-α", "setting": "TNF-α", "result": "prevented a doxorubicin-induced rise in serum levels of TNF-α"},
      {"measurement": "histone acetylation in U251 cancer cells", "setting": "[1]", "result": "increased histone acetylation considerably"},
      {"measurement": "TLR4 expression in MDA-231 cells", "setting": "TLR4", "result": "considerably more effective than valproic acid at repressing TLR4"}
    ]}
  ]
}
